The structures appear in SMILES notation. Counter-ions that a name gives are not always drawn. Like-named read-outs stand apart in the source and are kept apart here.

This assay deals with PC-3-KQ cells. Briefly: 3D spheroid invasion assay and screening of FDA-approved drugs. The format is cell-based, human. Particulars: compared to vehicle control; for activity at 0.01 µM / activity at 0.1 µM / activity at 1 µM / activity at 10 µM: Homo sapiens, 72 h, read-out: Invasion rates (%) of each drug’s multiple concentrations. The method, then: The invasion assay was performed as previously described. […] The plates were then centrifuged at 320 g for 4 min to cluster cells in the bottom of wells and incubated for 3 days. On the fourth day, 40 μL medium was removed from each well, 40 μL of the matrigel-medium mixture was added to each well, and cells were cultured for another 3 days. […] At the end of the incubation, images were taken using a phase contrast microscope (Eclipse Ti2, Nikon, Tokyo, Japan) with 10× object lenses, and the total area of cells and the core sphere area of cells (Fig. 1a) were measured using the Image J software. The invading area was calculated using the following formula: invasion area = total area of cells – core sphere area.
For drug screening, drugs were added to the matrigel-medium mixture when replacing the culture medium on day 4. For the initial round of screening, a final concentration of 10 μM was used for all drugs. Multiple drug concentrations were used for the second round of screening, including 0, 0.001, 0.01, 0.1, 1, and 10 μM. Duplicate wells were repeated for each concentration.

Setting [1] is: 0.01 μM (first column so headed), secondary screening of 87 hit compounds (Table S1).
[2] abbreviates: 0.01 μM (first column so headed), third screening of 25 hit compounds (Table S2).
Where [3] appears, read: 0.01 μM (second column so headed), secondary screening of 87 hit compounds (Table S1).
Setting [4] is: 0.01 μM (second column so headed), third screening of 25 hit compounds (Table S2).
[5] abbreviates: 0.1 μM, secondary screening of 87 hit compounds (Table S1).
Where [6] appears, read: 0.1 μM, third screening of 25 hit compounds (Table S2).
Setting [7] is: 1 μM, secondary screening of 87 hit compounds (Table S1).
Where [8] appears, read: 1 μM, third screening of 25 hit compounds (Table S2).
The mark [9] stands for this setting: 10 μM, secondary screening of 87 hit compounds (Table S1).
The mark [10] stands for this setting: 10 μM, third screening of 25 hit compounds (Table S2).

As to `C[C@H]1c2cccc(O)c2C(O)=C2C(=O)[C@]3(O)C(O)=C(C(N)=O)C(=O)[C@@H](N(C)C)[C@@H]3[C@@H](O)[C@@H]21` [Doxycycline (hyclate)], the “Invasion rates (%) of each drug’s multiple concentrations (μM)” value (from here on “Invasion rates (%)”) is, setting by setting: under setting [1], 91.64%; under setting [2], 101.94%; under setting [3], 100.52%; under setting [4], 98.24%; under setting [5], 74.92%; under setting [6], 93.64%. In addition, the “Invasion rates (%)” value by setting is: under setting [7], 3.13%; under setting [8], 5.76%; under setting [9], 1.59%; under setting [10], 1.58%.
Turning to `COc1cccc2c1C(=O)c1c(O)c3c(c(O)c1C2=O)C[C@@](O)(C(=O)CO)C[C@@H]3O[C@H]1C[C@H](N)[C@@H](O)[C@H](C)O1.Cl` [Epirubicin (hydrochloride)], the “Invasion rates (%)” value under setting [1] is 94.42%; the “Invasion rates (%)” value under setting [3] amounted to 95.60%; the “Invasion rates (%)” value under setting [5] amounted to 93.22%; the “Invasion rates (%)” value under setting [7] is 88.57%; the “Invasion rates (%)” value under setting [9] amounted to 4.65%.
For `CCc1c(Cl)c(O)c(Cl)c(O)c1C(=O)O[C@H]1[C@H](O)[C@H](OC)[C@H](OC/C2=C\C=C\C[C@H](O)/C(C)=C/[C@H](CC)[C@@H](O[C@@H]3OC(C)(C)[C@@H](OC(=O)C(C)C)[C@H](O)[C@@H]3O)/C(C)=C/C(C)=C/C[C@@H]([C@@H](C)O)OC2=O)O[C@@H]1C` [Fidaxomicin], the activity at 0.01 µM was determined as 100% under setting [1] and 103% under setting [3]. The activity at 0.1 µM under setting [5] amounted to 99.5%. Further, under setting [7], the activity at 1 µM amounted to 96%. Also, under setting [9], the activity at 10 µM turned out to be 41.5%.
Turning to `CC(=O)O[C@H]1C[C@@]2(C)[C@@H](C[C@@H](O)[C@H]3[C@@]4(C)CC[C@@H](O)[C@@H](C)[C@@H]4CC[C@@]32C)/C1=C(\CCC=C(C)C)C(=O)[O-].[Na+]` [Fusidic acid (sodium salt)], the “Invasion rates (%)” value is on record as 92.69% under setting [1]; 89.70% under setting [3]; 87.85% under setting [5]; 68.14% under setting [7]; 0.70% under setting [9].
For `COc1ccc2c3c1O[C@H]1C[C@@H](O)C=C[C@@]31CCN(C)C2` [Galanthamine], the activity at 0.01 µM under setting [1] came to 86.8%. The activity at 0.1 µM under setting [5] was determined as 88.4%. For the same molecule, the activity at 1 µM under setting [7] amounted to 83.3%. The activity at 10 µM under setting [9] is 15.1%.
Consider `CS(=O)(=O)O.C[C@H]1NCc2cc(-c3ccc4c(=O)c(C(=O)O)cn(C5CC5)c4c3OC(F)F)ccc21.O` [Garenoxacin (Mesylate hydrate)], for which the “Invasion rates (%)” value under setting [1] amounted to 89.65%; the “Invasion rates (%)” value under setting [3] is given as 95.96%; the “Invasion rates (%)” value under setting [5] is 85.98%; the “Invasion rates (%)” value under setting [7] came out at 96.56%; the “Invasion rates (%)” value under setting [9] came out at 48.76%.
Take `COc1cc2ncnc(Nc3ccc(F)c(Cl)c3)c2cc1OCCCN1CCOCC1` [Gefitinib]: the activity at 0.01 µM is, setting by setting: under setting [1], 86.8%; under setting [3], 85.3%. Besides, under setting [5], the activity at 0.1 µM worked out at 77.8%. Further, under setting [7], the activity at 1 µM was 60.2%. Further, under setting [9], the activity at 10 µM amounted to 27.4%.
For the molecule `CC(=O)[C@]1(O)Cc2c(O)c3c(c(O)c2[C@@H](O[C@H]2C[C@H](N)[C@H](O)[C@H](C)O2)C1)C(=O)c1ccccc1C3=O.Cl` [Idarubicin (hydrochloride)], the “Invasion rates (%)” value runs as follows: under setting [1], 80.06%; under setting [2], 95.32%; under setting [3], 88.67%; under setting [4], 98.46%; under setting [5], 83.45%; under setting [6], 100.06%. Further, the “Invasion rates (%)” value under setting [7] was 7.74%, the “Invasion rates (%)” value under setting [8] is 1.25%, the “Invasion rates (%)” value under setting [9] came to 3.85% and the “Invasion rates (%)” value under setting [10] was 1.34%.
Turning to `CC(C)C[C@H](NC(=O)CNC(=O)c1cc(Cl)ccc1Cl)B1OC(=O)C(CC(=O)O)(CC(=O)O)O1` [Ixazomib citrate], the activity at 0.01 µM under setting [1] worked out at 69.8%, the activity at 0.01 µM under setting [2] was 100%, the activity at 0.01 µM under setting [3] came to 81.3% and the activity at 0.01 µM under setting [4] came out at 96.7%. For the same molecule, the activity at 0.1 µM amounted to 26.9% under setting [5] and 91.4% under setting [6]. The activity at 1 µM was 1.95% under setting [7] and 54.2% under setting [8]. Also, the activity at 10 µM under setting [9] was 1.55% and the activity at 10 µM under setting [10] was determined as 0.4%.
Consider `CC(C)C[C@H](NC(=O)CNC(=O)c1cc(Cl)ccc1Cl)B(O)O` [Ixazomib], for which the activity at 0.01 µM is, setting by setting: under setting [1], 35.2%; under setting [2], 83.1%; under setting [3], 76.3%; under setting [4], 95.7%. For the same molecule, the activity at 0.1 µM under setting [5] is 22.3% and the activity at 0.1 µM under setting [6] came to 76.1%. For the same molecule, the activity at 1 µM is, setting by setting: under setting [7], 3.86%; under setting [8], 0.53%. The activity at 10 µM is, setting by setting: under setting [9], 1.01%; under setting [10], 0.3%.
With `CO[C@@H]1[C@@H](O[C@@H]2O[C@H](C)[C@@H](O[C@H]3C[C@@](C)(O)[C@@H](OC(=O)CC(C)C)[C@H](C)O3)[C@H](N(C)C)[C@H]2O)[C@@H](CC=O)C[C@@H](C)[C@@H](O)/C=C/C=C/C[C@@H](C)OC(=O)C[C@H]1OC(C)=O` [Josamycin], the activity at 0.01 µM was determined as 88.6% under setting [1] and 86.9% under setting [3]. Further, under setting [5], the activity at 0.1 µM stood at 86.7%. In addition, the activity at 1 µM under setting [7] was 78%. The activity at 10 µM under setting [9] turned out to be 15.5%.
In the same order, the values of `CC(=O)NC[C@H]1CN(c2ccc(N3CCOCC3)c(F)c2)C(=O)O1` [Linezolid] are 94.4%, 96.6%, 80%, 64.5% and 3.51%.
In the same order, the values of `N[C@@H](Cc1cc(I)c(Oc2ccc(O)c(I)c2)c(I)c1)C(=O)O` [Liothyronine] are 93.5%, 97.4%, 93.3%, 92.5% and 50.6%.
In the same order, the values of `COc1ccc(CN(CCN(C)C)c2ccccn2)cc1` [Mepyramine maleate] are 101%, 98.3%, 99.1%, 97.9% and 48.9%.
As to `C=C1c2cccc(O)c2C(O)=C2C(=O)[C@]3(O)C(O)=C(C(N)=O)C(=O)[C@@H](N(C)C)[C@@H]3[C@@H](O)[C@H]12.Cl` [Methacycline (hydrochloride)], the “Invasion rates (%)” value runs as follows: under setting [1], 68.21%; under setting [2], 93.06%; under setting [3], 75.44%; under setting [4], 92.10%; under setting [5], 57.31%; under setting [6], 89.39%. Moreover, the “Invasion rates (%)” value is on record as 4.98% under setting [7], 5.12% under setting [8], 3.07% under setting [9] and 2.20% under setting [10].

These data come from paper PMC9945734 (BMC Medicine, 2023).
